Measured values reported in US20190275167A1, “GLASS FORMULATIONS AND USES THEREOF” (priority 2018, published 2019).

Columns and labels:
[1] = Drug release from heat-molded pellets/articles in release buffer (PBS, 1% FBS in PBS or 100% FBS) at 37° C., HPLC quantification; type: physicochemical; details: for Drug release from heat molded pellets: pellets 1 mm×1 mm
Protocol: Samples were incubated at 37° C. on a shaker rotating at 115 rpm. After 1 day, 3 days, 7 days, and subsequently in alternating 3 and 4 day intervals (i.e., 1, 3, 7, 10, 14 days etc.), release buffer was sampled directly (PBS) or syringe filtered, proteins were precipitated with acetonitrile, and drug release products were extracted. The samples were analyzed by high performance liquid chromatography (HPLC) to quantify drug products.

[2] = Ethylene oxide (ETO) gas sterilization of heat-molded pellets, purity by HPLC and drug release pre- and post-ETO; type: physicochemical; details: ETO gas at 55° C.
[3] = tested on: joint of a subject suffering from inflammation, e.g., arthritis; experiment: Microparticles and nanoparticles injected into the joint of a subject suffering from inflammation; type: in vivo
Source text: Microparticles and nanoparticles are formed from Compound 1 according to the methods described in above. […] Local inflammation in the joint of the subject is reduced. Similarly, the other compounds of the disclosure can likewise be used to form micro- and nanoparticles and injected into the joint of a subject for the purposes of treating, e.g., inflammation, and the drug is released at a steady rate over several months (e.g., three months).

Compound	Speed of drug release compared to other drug dimers with triethylene glycol linker ([1]; 100% FBS)	Drug release from heat molded pellets ([1]; 100% FBS, 37° C.)	Drug release from heat molded pellets ([1]; PBS, 37° C.)	further results
Hydrocortisone-Triethylene Glycol-Hydrocortisone [Compound 2]	release very quickly			
C[C@@H]1C[C@H]2[C@@H]3CCC4=CC(=O)C=C[C@]4(C)[C@@]3(F)[C@@H](O)C[C@]2(C)[C@@]1(O)C(=O)COC(=O)OCCOCCOCCOC(=O)OCC(=O)[C@@]1(O)[C@H](C)C[C@H]2[C@@H]3CCC4=CC(=O)C=C[C@]4(C)[C@@]3(F)[C@@H](O)C[C@@]21C [Compound 1, Dexamethasone-Triethylene Glycol-Dexamethasone]				Mechanism of drug release from pellets (representative images over time) ([1]; 100% FBS, 37° C.): surface erosion; Dexamethasone release profile from articles ([1]; over the course of 12 weeks or more, FIGS. 1E, 12E, 15C, 17D): generally linear; Change in pellet purity due to ETO sterilization (HPLC) ([2]; pre- vs post-sterilization): no changes; Change in release properties due to ETO sterilization ([2]; release in 1% FBS in PBS or 100% FBS): no changes; Local inflammation in the joint of the subject [3]: reduced; Release of drug into the subject from injected micro- and nanoparticles [3]: steady rate over three months; Shape of pellets during surface erosion (FIG. 1F (100% FBS)): maintaining their shape; Physical form (shape) changes of articles (physiologically relevant conditions): do not
Ethinylestradiol-Triethylene Glycol-Ethinylestradiol [Compound 16]		no drug was released	no drug was released	
Fusidic Acid-Triethylene Glycol-Fusidic Acid (ester) [Compound 15]		no drug was released	no drug was released	
Fusidic Acid-Triethylene Glycol-Fusidic Acid (carbonate ester) [Compound 9]	release very quickly			
Cholesterol-Triethylene Glycol-Cholesterol [Compound 14]		no drug was released	no drug was released	
